Legend:
Hepatitis C virus [1] = test: Antiviral activity against HCV genotype 1b replicon infected in human HuH7 cells at 100 uM after 72 hrs by bright-glo luciferase reporter gene assay relative to control; format: functional, Hepacivirus hominis; settings: subtype 1b, Huh-7, 72 h
[2] = Cytotoxicity against human HuH7 cells infected with HCV genotype 1b replicon after 72 hrs by CellTiter-Fluor reagent based fluorescence assay; format: cell-based, Huh-7
Hepatitis C virus [3] = test: Antiviral activity against HCV genotype 1b replicon infected in human HuH7 cells at 10 uM after 72 hrs by bright-glo luciferase reporter gene assay relative to control; format: functional, Hepacivirus hominis; settings: subtype 1b, Huh-7, 72 h
Hepatitis C virus [4] = test: Antiviral activity against HCV genotype 1b replicon infected in human HuH7 cells after 72 hrs by bright-glo luciferase reporter gene assay; format: functional, organism-based, Hepacivirus hominis; settings: subtype 1b, Huh-7, 72 h
Hepatitis C virus [5] = test: Antiviral activity against HCV genotype 1b replicon infected in human HuH7 cells at 20 uM after 72 hrs by bright-glo luciferase reporter gene assay relative to control; format: functional, Hepacivirus hominis; settings: subtype 1b, Huh-7, 72 h
[6] = Half life in human plasma at 40 uM by LC-MS/MS analysis; format: ADME, cell-free
[7] = Stability in human plasma assessed as parent compound remaining at 40 uM measured immediately by LC-MS/MS analysis; format: ADME, cell-free; settings: read-out: Stability
[8] = Half life in human liver microsomes at 0.1 uM preincubated with MgCl2 for 10 mins followed by NADPH addition by LC-MS/MS analysis; format: ADME, Microsome; settings: microsomes, 0.1 µM
[9] = Stability in human liver microsomes assessed as parent compound remaining at 0.1 uM preincubated with MgCl2 for 10 mins followed by NADPH addition measured after 17 mins by LC-MS/MS analysis; format: ADME, Microsome; settings: microsomes, 17 min, 0.1 µM
[10] = Stability in human plasma assessed as parent compound remaining at 40 uM measured after 2 hrs by LC-MS/MS analysis; format: ADME, cell-free; settings: read-out: Stability
[11] = Stability in human liver microsomes assessed as parent compound remaining at 0.1 uM preincubated with MgCl2 for 10 mins followed by NADPH addition measured after 30 mins by LC-MS/MS analysis; format: ADME, Microsome; settings: microsomes, 0.5 h, 0.1 µM
[12] = Stability in human liver microsomes assessed as parent compound remaining at 0.1 uM preincubated with MgCl2 for 10 mins followed by NADPH addition measured immediately by LC-MS/MS analysis; format: ADME, Microsome; settings: read-out: Stability
[13] = Stability in human plasma assessed as parent compound remaining at 40 uM measured after 1 hr by LC-MS/MS analysis; format: ADME, cell-free; settings: read-out: Stability
[14] = Stability in human liver microsomes assessed as parent compound remaining at 0.1 uM preincubated with MgCl2 for 10 mins followed by NADPH addition measured after 7 mins by LC-MS/MS analysis; format: ADME, Microsome; settings: read-out: Stability
[15] = Stability in human plasma assessed as parent compound remaining at 40 uM measured after 5 hrs by LC-MS/MS analysis; format: ADME, cell-free; settings: read-out: Stability
[16] = Stability in human plasma assessed as parent compound remaining at 40 uM measured after 0.5 hrs by LC-MS/MS analysis; format: ADME, cell-free; settings: read-out: Stability
[17] = Metabolic bioavailability in human liver microsomes at 0.1 uM preincubated with MgCl2 for 10 mins followed by NADPH addition measured within 60 mins by LC-MS/MS analysis; format: ADME, Microsome
[18] = Stability in human liver microsomes assessed as parent compound remaining at 0.1 uM preincubated with MgCl2 for 10 mins followed by NADPH addition measured after 60 mins by LC-MS/MS analysis; format: ADME, Microsome; settings: read-out: Stability

SMILES	CC50 at 72 h [2]	EC50 (Hepatitis C virus [4])	other results
C[C@@]1(O)[C@H](O)[C@@H](CO)O[C@H]1n1ccnc(N)c1=O	> 100 µM	–	inhibition at 100 µM (Hepatitis C virus [1]): 22.3%
CC(C)OC(=O)[C@H](C)N[P@](=O)(OC[C@H]1O[C@@H](n2ccc(=O)n(C(C)OC(=O)OC3CCCCC3)c2=O)[C@](C)(F)[C@@H]1O)Oc1ccccc1 (some centres not stated)	> 10 µM	0.5 µM	inhibition at 10 µM (Hepatitis C virus [3]): 99.9%
CC(C)OC(=O)[C@H](C)N[P@](=O)(OC[C@H]1O[C@@H](n2ccnc(N)c2=O)[C@](C)(O)[C@@H]1O)Oc1ccccc1	59.6 µM	24.4 µM	inhibition at 100 µM (Hepatitis C virus [1]): 99.8%
C[C@@]1(O)[C@H](O)[C@@H](CO)O[C@H]1n1cc(Br)ncc1=O	> 100 µM	> 100 µM	–
CCNc1nccn([C@@H]2O[C@H](CO)[C@@H](O)[C@@]2(C)O)c1=O	> 100 µM	> 100 µM	–
CC(C)OC(=O)[C@H](C)N[P@](=O)(OC[C@H]1O[C@@H](n2ccc(Oc3ccccc3)nc2=O)[C@](C)(F)[C@@H]1O)Oc1ccccc1	> 20 µM	> 20 µM	inhibition at 20 µM (Hepatitis C virus [5]): 0%
C[C@]1(CO)O[C@@H](n2ccnc(N)c2=O)[C@H](O)[C@@H]1O	> 100 µM	> 100 µM	–
CC(C)OC(=O)[C@H](C)N[P@](=O)(OC[C@H]1O[C@@H](n2cc(C(N)=O)ncc2=O)[C@](C)(O)[C@@H]1O)Oc1ccccc1	> 100 µM	> 100 µM	–
CCNc1nccn([C@@H]2O[C@](C)(CO)[C@@H](O)[C@H]2O)c1=O	> 100 µM	> 100 µM	–
CCOC(=O)OCn1c(=O)ccn([C@@H]2O[C@H](CO[P@@](=O)(N[C@@H](C)C(=O)OC(C)C)Oc3ccccc3)[C@@H](O)[C@@]2(C)F)c1=O	> 10 µM	0.21 µM	inhibition at 10 µM (Hepatitis C virus [3]): 99.3%
C=CCNc1ccn([C@@H]2O[C@H](CO[P@@](=O)(N[C@@H](C)C(=O)OC(C)C)Oc3ccccc3)[C@@H](O)[C@@]2(C)F)c(=O)n1	> 20 µM	> 20 µM	inhibition at 20 µM (Hepatitis C virus [5]): 0%
C=CCOc1ccn([C@@H]2O[C@H](CO[P@@](=O)(N[C@@H](C)C(=O)OC(C)C)Oc3ccccc3)[C@@H](O)[C@@]2(C)F)c(=O)n1	> 20 µM	> 20 µM	inhibition at 20 µM (Hepatitis C virus [5]): 0%
C[C@@]1(O)[C@H](O)[C@@H](CO)O[C@H]1n1cc(C(N)=O)ncc1=O	> 100 µM	> 100 µM	–
CC(C)OC(=O)OC(C)n1c(=O)ccn([C@@H]2O[C@H](CO[P@@](=O)(N[C@@H](C)C(=O)OC(C)C)Oc3ccccc3)[C@@H](O)[C@@]2(C)F)c1=O (some centres not stated)	> 10 µM	0.22 µM	half-life at 40 µM [6]: 16.4 h; inhibition at 10 µM (Hepatitis C virus [3]): 99.8%; remaining at 0 h, 40 µM [7]: 100%; t1/2 [8]: 0.225 h; Stability [9]: 12.8%; remaining at 2 h, 40 µM [10]: 85.3%; Stability [11]: 2.1%; remaining at 0 min, 0.1 µM [12]: 100%; remaining at 1 h, 40 µM [13]: 90%; remaining at 7 min, 0.1 µM [14]: 51.2%; remaining at 5 h, 40 µM [15]: 78.9%; remaining at 0.5 h, 40 µM [16]: 92.8%; Fh at 1 h, 0.1 µM [17]: 11.2%; remaining at 1 h, 0.1 µM [18]: 0%
C[C@]1(CO)O[C@@H](n2ccnc(C(N)=O)c2=O)[C@H](O)[C@@H]1O	> 100 µM	> 100 µM	–
C[C@@]1(O)[C@H](O)[C@@H](CO)O[C@H]1n1cc(Cl)nc(C(N)=O)c1=O	> 100 µM	7.3 µM	–

Source: ChEMBL document CHEMBL4411327, “Discovery of pyrimidine nucleoside dual prodrugs and pyrazine nucleosides as novel anti-HCV agents” (Bioorg Med Chem, 2019)
